# Reference: patent publication US20160022733A1, “NOVEL FORMULA OF IRON BASED NANOCOMPOSITES FOR RAPID AND EFFICIENT TREATMENT OF IRON DEFICIENCY ANEMIA” (NANOTECH FOR PHOTOELECTRONICS RESEARCH, priority 2013, published 2016)
# System: Life-threatening iron-deficiency anemic rats
# Assay: Hemoglobin concentration after single oral dose in rats with induced life-threatening hemorrhagic anemia
# Assay type: in vivo, Albino rats of the Wisconsin Holtzman strain
# Conditions: Ferric Chloride given orally to anemic rats (group 4)
# Protocol: Part II: Animal Trial Experimental Design • Five weeks old Albino rats of the Wisconsin Holtzman strain, weighing 150-160 g, were divided into six, as showing below Rats of groups 1-5 were exposed daily to blood withdrawal from inner canthus of eyes. The hemoglobin concentration of collected blood samples in heparinized tubes was measured by colorimetric method using commercially available kit (Drabkin's solution). […] Rats of control group were not exposed to any blood withdrawal. After induction of Life-threatening hemorrhagic anemia, all rats were fasted for 6 hours prior their oral administration with different treatments and doses. […] Two control groups were allocated for this pilot experiment; group 5 where rats were exposed to Life-threatening hemorrhagic anemia and treated with the vitamins mixture dissolved with Nano sized magnetite (Ascorbic, folic and nicotinic acids), and group 6 where rats were non-anemic and administered distilled water (Table 1). Rats of different groups were left for 3 days after oral administration of different treatments, fed ad libitum on balanced diet containing iron and clean tap water. Blood samples were collected on 4th and 7th day after dosing and Hb concentration was measured using colorimetric method.
compound,measurement,value
[Cl][Fe]([Cl])[Cl] [Ferric Chloride],Effect on Hb. concentration,corrected the Hb. concentration but achieved neither the levels in Nano-sized magnetite groups nor the level in control non-anemic rats
